Experimental data reported in patent publication US20070014803A1, “METHODS AND COMPOSITIONS FOR DIAGNOSIS AND TREATMENT OF VIRAL AND BACTERIAL INFECTIONS” (Arbor Vita Corporation, priority 2005, published 2007).
Where two headings read alike, the source gives them in different places. Where no end group is shown, it is not given here.

Assays:
PDZ protein Rim2 = molecular target: T1, PDZ protein Rim2 (Homo sapiens, UniProt Q9UQ26); experiment: PRISM Matrix ELISA modified G assay (pre-incubation), peptide titration; settings: read-out: EC50 of binding to the PDZ protein Rim2
T1 construct: made in house
T1 sequence (Q9UQ26 632-757): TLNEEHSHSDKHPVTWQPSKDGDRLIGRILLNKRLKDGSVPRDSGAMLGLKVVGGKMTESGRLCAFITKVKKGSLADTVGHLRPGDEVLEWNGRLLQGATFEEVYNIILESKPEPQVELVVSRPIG
Protocol: (§1) Two different types of ELISA assays were used to test the HIV Peptides 1904 and 1905. The primary MATRIX screen against all PDZ proteins in the library was performed under pre-incubation conditions, which are a modification of the G assay. A pre-incubation assay incubates the peptide with the HRP-streptavidin before addition of the mixture to the PDZ-coated plate. The subsequent titrations of the peptide against the PDZs of interest were performed under normal ELISA G assay conditions. In normal conditions the peptide is incubated on the PDZ coated plate before the later addition of the HRP-streptavidin. The reagents and supplies for both assays are listed below, as well as the two different protocols.
(§2) The PRISM Matrix ELISA modified G Assay was also used for pre-incubation and for the MATRIX assay. The protocol was as follows.
(§3) 1. Coat plate with 100 μl of 5 μg/ml anti-GST, O/N @ 4° C.
(§4) 2. Dump contents out of plate and tap dry on paper towels
(§5) 3. Block with 200 μl Assay Buffer for 1 to 2 hrs at room temperature
(§6) 4. Prepare proteins in Assay Buffer
(§7) 5. Wash plate 3× with cold PBS*
(§8) 6. Add proteins at 50 μl per well, incubate 1 to 2 hrs at 4° C.
(§9) 7. Prepare peptides in Assay Buffer:
(§10) • Prepare peptides in half of volume need with double of desired concentration. • Dilute HRP (1:1000) in another half of volume (same volume with peptide) then mix with peptides. • Incubate the peptide-HRP mixtures for 20 minutes at RT 8. Wash plate 3× with cold PBS* 9. Add peptide-HRP mixtures at 50 μl per well (write time on plate) 10. Incubate at RT after last peptide has been added for exactly 30 minutes 11. Turn on plate reader and prepare files 12. Promptly wash plate 5× with room temperature PBS 13. Add 100 μl/well TMB substrate (write time on plate) 14. Incubate in dark at room temp for a maximum of 30 minutes 15. Stop reaction with 100 μl of 0.18M H2SO4, 30 min. after adding TMB 16. Take last reading at 450 nm soon after stopping reaction

[1] = molecular target: T2, PDZ protein ZO-1 d2 (domain 2) (Homo sapiens, UniProt Q07157, DEL264-264); experiment: as above; settings: read-out: EC50 of binding to the PDZ protein ZO-1 d2
T2 construct: made in house
T2 sequence (Q07157 with tags, fused parts or gaps DEL264-264): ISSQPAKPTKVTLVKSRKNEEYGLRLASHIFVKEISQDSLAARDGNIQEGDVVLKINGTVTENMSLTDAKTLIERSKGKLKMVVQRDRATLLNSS
Protocol: as §1, §2, §3, §4, §5, §6, §7, §8, §9, §10

PDZ protein NSP = molecular target: T3, PDZ protein NSP (Homo sapiens, UniProt Q92743); experiment: as above; settings: read-out: EC50 of binding to the PDZ protein NSP
T3 construct: made in house
T3 sequence (Q92743 359-473): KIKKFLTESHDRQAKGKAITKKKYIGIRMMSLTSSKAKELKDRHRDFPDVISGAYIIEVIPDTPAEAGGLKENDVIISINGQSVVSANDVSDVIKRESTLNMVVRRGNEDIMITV
Protocol: as §1, §2, §3, §4, §5, §6, §7, §8, §9, §10

KIAA1284 = molecular target: T4, KIAA1284 (Homo sapiens, UniProt Q9ULD6); experiment: MATRIX screen against PDZ library (modified G assay); type: binding; settings: pre-incubation conditions
T4 construct: made in house
T4 sequence (Q9ULD6 159-271): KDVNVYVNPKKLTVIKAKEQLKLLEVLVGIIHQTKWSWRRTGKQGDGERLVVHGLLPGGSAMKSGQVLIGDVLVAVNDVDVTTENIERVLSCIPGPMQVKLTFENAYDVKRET
Protocol: (§11) Matrix graphPeptides and proteins were tested in an array format constituting a near complete set (255) of all the different PDZ domains in the human genome. Each PDZ domain polypeptide was expressed as a recombinant GST-PDZ polypeptide in a commercial glutathione S-transferase tagged expression system. Specific binding of biotinylated-PL peptides to PDZ domain polypeptides was detected using streptavidin-HRP and TMB substrate. Similarly, specific binding of PL protein-MBP fusion proteins to PDZ domain polypeptides was visualized using biotinylated anti-MBP, streptavidin-HRP and TMB substrate. The relative strength of binding was analyzed and the strong and weak binders are shown for each PL. A PDZ protein that binds more strongly is preferable when used for capturing or identifying PL proteins.
as §1, §2, §3, §4, §5, §6, §7, §8, §9, §10

PAR3 d3 = molecular target: T5, PAR3 d3 (Homo sapiens, UniProt Q8TEW0, R682S); experiment: as above; type: binding; settings: pre-incubation conditions
T5 construct: made in house
T5 sequence (Q8TEW0 with tags, fused parts or gaps R682S): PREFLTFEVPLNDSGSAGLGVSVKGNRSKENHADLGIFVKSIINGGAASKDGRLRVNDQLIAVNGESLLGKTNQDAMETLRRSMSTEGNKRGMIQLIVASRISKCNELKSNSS
Protocol: as §11, §1, §2, §3, §4, §5, §6, §7, §8, §9, §10

NSP = molecular target: T6, NSP (Homo sapiens, UniProt Q92743); experiment: as above; type: binding; settings: pre-incubation conditions
T6 construct: made in house
T6 sequence (Q92743 359-473): as the sequence (Q92743 359-473) above
Protocol: as §11, §1, §2, §3, §4, §5, §6, §7, §8, §9, §10

SIP1 d1 = molecular target: T7, SIP1 d1 (Homo sapiens, UniProt Q15599); experiment: as above; type: binding; settings: pre-incubation conditions
T7 construct: made in house
T7 sequence (Q15599 with tags, fused parts or gaps): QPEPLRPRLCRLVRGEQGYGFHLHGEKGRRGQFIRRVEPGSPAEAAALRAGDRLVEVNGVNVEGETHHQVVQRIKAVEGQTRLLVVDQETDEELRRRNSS
Protocol: as §11, §1, §2, §3, §4, §5, §6, §7, §8, §9, §10

EBP50 d1 = molecular target: T8, EBP50 d1 (Homo sapiens, UniProt O14745); experiment: as above; type: binding; settings: pre-incubation conditions
T8 construct: made in house
T8 sequence (O14745 with tags, fused parts or gaps): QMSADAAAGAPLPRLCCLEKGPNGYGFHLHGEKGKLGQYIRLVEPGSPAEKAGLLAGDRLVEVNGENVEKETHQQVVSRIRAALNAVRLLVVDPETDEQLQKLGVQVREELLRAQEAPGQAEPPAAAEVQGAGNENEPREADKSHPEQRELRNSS
Protocol: as §11, §1, §2, §3, §4, §5, §6, §7, §8, §9, §10

MAST2 = molecular target: T9, MAST2 (Homo sapiens, UniProt Q6P0Q8); experiment: as above; type: binding; settings: pre-incubation conditions
T9 construct: made in house
T9 sequence (Q6P0Q8 with tags, fused parts or gaps): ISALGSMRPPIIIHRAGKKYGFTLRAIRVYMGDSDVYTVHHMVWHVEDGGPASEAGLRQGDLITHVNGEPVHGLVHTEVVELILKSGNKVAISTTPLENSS
Protocol: as §11, §1, §2, §3, §4, §5, §6, §7, §8, §9, §10

Tip = molecular target: T10, Tip (Homo sapiens, UniProt O14907); experiment: as above; type: binding; settings: pre-incubation conditions
T10 construct: made in house
T10 sequence (O14907 15-112): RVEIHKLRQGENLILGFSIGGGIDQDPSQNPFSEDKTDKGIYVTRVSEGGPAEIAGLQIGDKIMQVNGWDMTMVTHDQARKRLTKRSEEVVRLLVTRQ
Protocol: as §11, §1, §2, §3, §4, §5, §6, §7, §8, §9, §10

MUPP1d3 = molecular target: T11, MUPP1d3 (Homo sapiens, UniProt O75970); experiment: as above; type: binding; settings: pre-incubation conditions
T11 construct: made in house
T11 sequence (O75970 with tags, fused parts or gaps): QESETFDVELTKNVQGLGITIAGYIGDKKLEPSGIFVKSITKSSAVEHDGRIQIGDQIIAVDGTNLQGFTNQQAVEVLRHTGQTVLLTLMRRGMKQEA
Protocol: as §11, §1, §2, §3, §4, §5, §6, §7, §8, §9, §10

INADL d3 = molecular target: T12, INADL d3 (Homo sapiens, UniProt Q8NI35); experiment: as above; type: binding; settings: pre-incubation conditions
T12 construct: made in house
T12 sequence (Q8NI35 with tags, fused parts or gaps): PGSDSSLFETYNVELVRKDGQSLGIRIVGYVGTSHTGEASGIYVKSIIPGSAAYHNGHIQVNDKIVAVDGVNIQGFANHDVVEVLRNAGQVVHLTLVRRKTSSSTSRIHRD
Protocol: as §11, §1, §2, §3, §4, §5, §6, §7, §8, §9, §10

NOS1 = molecular target: T13, NOS1 (Homo sapiens, UniProt P29475); experiment: as above; type: binding; settings: pre-incubation conditions
T13 construct: made in house
T13 sequence (P29475 11-100): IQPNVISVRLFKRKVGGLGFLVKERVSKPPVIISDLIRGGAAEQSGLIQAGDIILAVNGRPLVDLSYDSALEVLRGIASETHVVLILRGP
Protocol: as §11, §1, §2, §3, §4, §5, §6, §7, §8, §9, §10

MINT1 d1, 2 = molecular target: T14, MINT1 d1, 2 (Homo sapiens, UniProt Q02410); experiment: as above; type: binding; settings: pre-incubation conditions
T14 construct: MINT1 d1, 2; made in house
T14 sequence (Q02410 651-828): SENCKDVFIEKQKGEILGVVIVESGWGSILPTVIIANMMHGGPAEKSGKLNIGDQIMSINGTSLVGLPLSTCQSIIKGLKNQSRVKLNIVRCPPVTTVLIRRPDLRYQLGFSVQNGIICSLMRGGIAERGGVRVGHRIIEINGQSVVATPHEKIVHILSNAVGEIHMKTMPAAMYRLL
Protocol: as §11, §1, §2, §3, §4, §5, §6, §7, §8, §9, §10

RhophilinLike = molecular target: T15, RhophilinLike (Homo sapiens, UniProt Q8TCX5); experiment: as above; type: binding; settings: pre-incubation conditions
T15 construct: made in house
T15 sequence (Q8TCX5 with tags, fused parts or gaps): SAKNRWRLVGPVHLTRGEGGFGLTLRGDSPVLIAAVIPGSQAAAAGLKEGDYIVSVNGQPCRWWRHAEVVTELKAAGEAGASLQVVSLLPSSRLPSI
Protocol: as §11, §1, §2, §3, §4, §5, §6, §7, §8, §9, §10

KIAA0316 = molecular target: T16, KIAA0316 (Homo sapiens, UniProt Q14CM0, A161E); experiment: as above; type: binding; settings: pre-incubation conditions
T16 construct: made in house
T16 sequence (Q14CM0 with tags, fused parts or gaps A161E): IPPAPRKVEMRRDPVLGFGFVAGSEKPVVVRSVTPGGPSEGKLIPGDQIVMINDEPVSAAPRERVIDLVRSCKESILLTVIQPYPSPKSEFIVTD
Protocol: as §11, §1, §2, §3, §4, §5, §6, §7, §8, §9, §10

SITAC-18 d1 = molecular target: T17, SITAC-18 d1 (Homo sapiens, UniProt Q9H190); experiment: as above; type: binding; settings: pre-incubation conditions
T17 construct: made in house
T17 sequence (Q9H190 104-195): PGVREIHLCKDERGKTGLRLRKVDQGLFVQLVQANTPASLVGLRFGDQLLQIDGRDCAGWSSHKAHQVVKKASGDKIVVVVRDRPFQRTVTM
Protocol: as §11, §1, §2, §3, §4, §5, §6, §7, §8, §9, §10

GORASP1 d1 = molecular target: T18, GORASP1 d1 (Homo sapiens, UniProt Q9BQQ3); experiment: as above; type: binding; settings: pre-incubation conditions
T18 construct: made in house
T18 sequence (Q9BQQ3 1-110): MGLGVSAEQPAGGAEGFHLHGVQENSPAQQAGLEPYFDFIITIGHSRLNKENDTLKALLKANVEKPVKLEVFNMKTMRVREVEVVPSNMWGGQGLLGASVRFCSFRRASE
Protocol: as §11, §1, §2, §3, §4, §5, §6, §7, §8, §9, §10

Magi1 d1 = molecular target: T19, Magi1 d1 (Homo sapiens, UniProt Q96QZ7); experiment: as above; type: binding; settings: pre-incubation conditions
T19 construct: made in house
T19 sequence (Q96QZ7 with tags, fused parts or gaps): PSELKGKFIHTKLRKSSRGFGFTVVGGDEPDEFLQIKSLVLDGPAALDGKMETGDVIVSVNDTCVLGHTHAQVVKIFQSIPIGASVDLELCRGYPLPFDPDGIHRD
Protocol: as §11, §1, §2, §3, §4, §5, §6, §7, §8, §9, §10

AIPC d1 = molecular target: T20, AIPC d1 (Homo sapiens, UniProt O15018); experiment: as above; type: binding; settings: pre-incubation conditions
T20 construct: made in house
T20 sequence (O15018 with tags, fused parts or gaps): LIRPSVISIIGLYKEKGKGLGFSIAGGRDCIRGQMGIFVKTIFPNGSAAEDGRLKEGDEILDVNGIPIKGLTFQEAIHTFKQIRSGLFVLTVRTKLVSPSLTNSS
Protocol: as §11, §1, §2, §3, §4, §5, §6, §7, §8, §9, §10

MUPP1d11 = molecular target: T21, MUPP1d11 (Homo sapiens, UniProt O75970); experiment: as above; type: binding; settings: pre-incubation conditions
T21 construct: made in house
T21 sequence (O75970 1716-1813): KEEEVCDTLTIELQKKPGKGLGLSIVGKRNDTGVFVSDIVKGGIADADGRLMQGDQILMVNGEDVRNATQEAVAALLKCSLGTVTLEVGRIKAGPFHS
Protocol: as §11, §1, §2, §3, §4, §5, §6, §7, §8, §9, §10

[2] = modified G assay titration (FIG. 2C, FIG. 3C)
[3] = modified G assay titration (FIG. 2B, FIG. 3B)
[4] = modified G assay titration (FIG. 2D, FIG. 3D)

Substance | EC50 (PDZ protein Rim2; [2]) | EC50 [1, 3] | EC50 (PDZ protein NSP; [4]) | Intensity of Hit, PDZ KIAA1284 (KIAA1284) | Intensity of Hit, PDZ PAR3 d3 (PAR3 d3) | Intensity of Hit, PDZ NSP (NSP) | Intensity of Hit, PDZ SIP1 d1 (SIP1 d1) | Intensity of Hit, PDZ MAST2 (MAST2) | also measured
YGRKKRRQRRRRQGFERALL-OH [Peptide 1905] | 14 nM | 2.8 nM | 8 nM | STRONG | STRONG | STRONG | STRONG | STRONG | EC50 (PDZ protein Rim2; modified G assay titration, third experiment (FIG. 5, printed as FIG. 3C)): 68 nM; EC50 ([1]; modified G assay titration, third experiment (FIG. 5B)): 36 nM; EC50 (PDZ protein NSP; modified G assay titration, third experiment (FIG. 5, printed as FIG. 3D)): 30 nM; Intensity of Hit, PDZ EBP50 d1 (EBP50 d1): STRONG; Intensity of Hit, PDZ Tip (Tip): STRONG
YGRKKRRQRRRRQGLERILL-OH [Peptide 1904] | 30 nM | 25 nM | 14.9 nM | STRONG | STRONG | STRONG | WEAK | STRONG | Intensity of Hit, PDZ MUPP1d3 (MUPP1d3): WEAK; Intensity of Hit, PDZ INADL d3 (INADL d3): STRONG; Intensity of Hit, PDZ NOS1 (NOS1): STRONG; Intensity of Hit, PDZ MINT1 d1, 2 (MINT1 d1, 2): STRONG; Intensity of Hit, PDZ RhophilinLike (RhophilinLike): STRONG; Intensity of Hit, PDZ KIAA0316 (KIAA0316): STRONG; Intensity of Hit, PDZ SITAC-18 d1 (SITAC-18 d1): STRONG; Intensity of Hit, PDZ GORASP1 d1 (GORASP1 d1): STRONG; Intensity of Hit, PDZ Magi1 d1 (Magi1 d1): STRONG; Intensity of Hit, PDZ AIPC d1 (AIPC d1): STRONG; Intensity of Hit, PDZ MUPP1d11 (MUPP1d11): STRONG
